The source made the active and inactive calls. How the calls were made is not given here.

Assay [1] is described as follows: Her2 expression suppression with viability readout – cell-based, AlphaScreen, CellTiter-Glo viability, dose response (AID 742). The conditions noted are these: human cells, Her2 expression AlphaScreen; CTG viability; at 9.62 µM (top of the series). For orientation: Alpha assays give light when donor and acceptor beads are brought close together.
The subject of assay [2] is human cells, Her2 expression AlphaScreen; CTG viability. The assay is described as above. The conditions noted are these: viability, CellTiter-Glo. Background: Cellular ATP, detected with luciferase, serves as a proxy for viable cell number.

Consider `COc1ccc(CSc2nnnn2Cc2ccccc2)cc1OC`, for which, in assay [1], the Her2 inhibition is -31.4% (inactive). The EC50 in assay [2] was above 9.62 µM.
For `CC(C)N1CCC2(CC1)N=C(c1ccc3c(c1)OCO3)CC(c1cc(Cl)ccc1O)N2` (configuration not stated) the same measures were 20.5% (inactive) and above 9.62 µM.
In the same order, the values of `Cc1c(NC(=O)c2cccc(F)c2)c(=O)n(-c2ccccc2)n1C` are 10.6% (inactive) and above 9.62 µM.
For `CCOc1ccc(NC(=O)C/C(N)=N/O)cc1` the same measures were -1.78% (inactive) and above 9.62 µM.
Take `Cc1cccc(C)c1NC1=NCCCS1`: the Her2 inhibition in assay [1] was 6.69% (inactive). The compound further registered an EC50 in assay [2] above 9.62 µM.
With `COC(=O)/C=C/S(=O)(=O)c1ccc(NC(C)=O)cc1`, in assay [1], the Her2 inhibition is 20.9% (inactive). The compound also returned an EC50 in assay [2] above 9.62 µM.
Take `O=S(=O)(c1ccc2c(c1)C(=NO)c1cc(S(=O)(=O)N3CCCCC3)ccc1-2)N1CCCCC1`: the Her2 inhibition in assay [1] was 27.4% (inactive). In assay [2], the EC50 is below 0.024 µM.
In the same order, the values of `Cc1[nH]nc2c1C(C1CC=CCC1)C(C#N)=C(N)O2` (configuration not stated) are -29.3% (inactive) and above 9.62 µM.
For `c1ccc(-n2c(-c3ccncc3)nnc2N2CCOCC2)cc1` the same measures were -8.89% (inactive) and above 9.62 µM.
In the same order, the values of `Cc1ccc(S(=O)(=O)Nc2cccc3ncccc23)s1` are 14.8% (inactive) and above 9.62 µM.
With `Cc1cc(C)n(-c2c(F)c(F)c(CN3CCOCC3)c(F)c2F)n1`, the Her2 inhibition in assay [1] was -10.7% (inactive). The same compound came in with an EC50 in assay [2] above 9.62 µM.
For `Cc1ccc(C)n1-c1ccc(N2CCOCC2)nc1` the same measures were 3.86% (inactive) and above 9.62 µM.
For `CCOc1ccc(CNc2ccc3c(c2)ncn3C)cc1` the same measures were 8.61% (inactive) and above 9.62 µM.
As for `O=C(Nc1ccc2c(c1)OCO2)c1cnn2cccnc12`, in assay [1], the Her2 inhibition is -5.1% (inactive). Besides, in assay [2], the 50% effective concentration (EC50) was above 9.62 µM.
For `CCc1ccc(C2CC(=O)N3CN(c4ccccc4)CSC3=C2C#N)cc1` (configuration not stated) the same measures were 21.4% (inactive) and above 9.62 µM.
In the same order, the values of `COc1ccc2sc(NC(=O)CC(C)C)nc2c1` are 2.84% (inactive) and above 9.62 µM.
For the compound `Cn1c(SC2=CS(=O)(=O)c3ccccc32)nc2ccccc21`, the Her2 inhibition in assay [1] is 44.8% (inactive). The compound also displayed a 50% effective concentration (EC50) in assay [2] above 9.62 µM.
On to `CCc1ccc2oc(-c3cc(N=Cc4cccc(OC)c4O)ccc3O)nc2c1`, for which the Her2 inhibition in assay [1] is 20.2% (inactive). The same compound displayed an EC50 in assay [2] above 9.62 µM.
In the same order, the values of `COC(=O)CS(=O)(=O)c1nnc([C@H](Cc2ccccc2)NC(=O)OC(C)(C)C)o1` are -2.38% (inactive) and above 9.62 µM.
On to `COC(=O)CC1=C(C(=O)OC)C(c2ccc3c(c2Cl)OCO3)C(C#N)=C(N)O1` (configuration not stated), for which the Her2 inhibition in assay [1] is -10.7% (inactive). The compound also showed a 50% effective concentration (EC50) in assay [2] above 9.62 µM.
In the same order, the values of `CC(C)COC(=O)N1CC(O)CC1C(=O)O` (configuration not stated) are 7.84% (inactive) and above 9.62 µM.
For `CCCCC(C(=O)O)C(C)CC(=O)Nc1cccc(C(=O)O)c1` (configuration not stated) the same measures were -10.2% (inactive) and above 9.62 µM.
For `CCOc1cc(C(=O)CSc2nnc(CNc3ccc(Cl)cc3)o2)ccc1NC(=O)CC` the same measures were -22.6% (inactive) and above 9.62 µM.
`CC(=O)C(Sc1ncnc2c1nnn2-c1ccc(F)cc1)C(=O)N(C)C` (configuration not stated): the Her2 inhibition in assay [1] is -16.5% (inactive). The compound further registered an EC50 in assay [2] above 9.62 µM.
In the same order, the values of `O=C(NCC(=O)N(CCc1ccccc1)C(C(=O)NC1CCCC1)c1cccnc1)c1ccco1` (configuration not stated) are -12.6% (inactive) and above 9.62 µM.
For `Oc1ccc(N=Cc2ccc(-c3cccs3)s2)cc1` the same measures were 37.6% (inactive) and below 0.024 µM.
For `O=S(=O)(CCN1CCN(C(c2ccccc2)c2ccccc2)CC1)C(F)(F)F` the same measures were -1.03% (inactive) and above 9.62 µM.
In the case of `CNCCCC12CCC(c3ccccc31)c1ccccc12`, the Her2 inhibition in assay [1] was -11.5% (inactive). For the same compound, in assay [2], the EC50 was above 9.62 µM.
As for `Clc1ccc(COC(Cn2ccnc2)c2ccc(Cl)cc2Cl)cc1` (configuration not stated), the Her2 inhibition in assay [1] was 1.73% (inactive). Further, the EC50 in assay [2] is above 9.62 µM.
For `CC(C)n1c(SCc2ccc(Cl)cc2)nc2c1c(=O)[nH]c(=O)n2C` the same measures were -14.2% (inactive) and above 9.62 µM.
Regarding `O=C(c1ccco1)N(Cc1ccco1)c1ccc(O)cc1`, in assay [1], the Her2 inhibition was -0.36% (inactive). In assay [2], the concentration giving a half-maximal response (EC50) is above 9.62 µM.
Take `c1cnc(-c2nnc3n2CCCCC3)cn1`: in assay [1], the Her2 inhibition is 5.42% (inactive). This compound also displayed an EC50 in assay [2] above 9.62 µM.
For `Cc1c(-c2cccs2)[n+](=O)c2c(n1[O-])CCCC2` the same measures were -49% (inactive) and above 9.62 µM.
For `CCN(C(=O)COC(=O)c1cc(C)n(-c2ccc(F)cc2)c1C)C1CCS(=O)(=O)C1` (configuration not stated), the Her2 inhibition in assay [1] was -2.5% (inactive). This compound also registered an EC50 in assay [2] above 9.62 µM.
In the same order, the values of `CCCCCCOC(=O)C(C#N)c1nc2ccccc2nc1N1CCN(C)CC1` (configuration not stated) are -32.5% (inactive) and above 9.62 µM.
For `Nc1c(S(=O)(=O)c2cccc(Cl)c2)c2nc3ccccc3nc2n1/N=C/c1ccc(O)c(O)c1` the same measures were 11.2% (inactive) and above 9.62 µM.
For `COc1ccccc1-n1c(SCC(=O)NC(C)(C)C)nc(O)cc1=O` the same measures were 8.19% (inactive) and above 9.62 µM.
Regarding `OC(CN1CCN(c2cccc(C(F)(F)F)c2)CC1)c1c[nH]c2ccccc12` (configuration not stated), the Her2 inhibition in assay [1] is 4.59% (inactive). In addition, in assay [2], the half-maximal effective concentration (EC50) is above 9.62 µM.
As to `CCOC(=O)N1CCN(C(=O)CSCc2nc(-c3ccccc3C)oc2C)CC1`, in assay [1], the Her2 inhibition is -0.97% (inactive). The compound further had an EC50 in assay [2] above 9.62 µM.
With `c1ccc(Cc2nn3c(COc4ccccc4)nnc3s2)cc1`, the Her2 inhibition in assay [1] was -17.6% (inactive). In addition, the EC50 in assay [2] is above 9.62 µM.
For `O=S(=O)(NCc1ccco1)c1cccc2cccnc12` the same measures were -18.5% (inactive) and above 9.62 µM.
Regarding `CCOc1cc(C(=O)NCCOC)ccc1OC`, the Her2 inhibition in assay [1] was -7.59% (inactive). In assay [2], the EC50 is above 9.62 µM.
For the compound `Cc1c(C#N)c(N)c(C(=O)c2ccccc2)n1Cc1ccccc1`, the Her2 inhibition in assay [1] was -0.29% (inactive). In assay [2], the 50% effective concentration (EC50) was above 9.62 µM.
In the same order, the values of `CCOc1ccc(-c2[nH]ncc2Oc2ccccc2OCC)c(O)c1` are 1.97% (inactive) and above 9.62 µM.
In the same order, the values of `CCCOc1ccc(C(=O)CCN2CCCCC2)cc1` are -16.8% (inactive) and above 9.62 µM.
For `Cc1ccccc1-n1nc2c(c1NC(=O)c1cc3ccccc3oc1=O)CS(=O)(=O)C2` the same measures were -11.6% (inactive) and above 9.62 µM.
For the compound `CCCCn1c(O)c(C(C)=NCCN2CCCCC2)c(=O)[nH]c1=O`, in assay [1], the Her2 inhibition was -17.4% (inactive). The EC50 in assay [2] is above 9.62 µM.
For `COc1cccc(-c2nnn(CC(=O)O)n2)c1` the same measures were -1.29% (inactive) and above 9.62 µM.
In the same order, the values of `O=C(Cc1cscn1)c1ccc(O)cc1O` are 3.58% (inactive) and above 9.62 µM.
For `S=C1SCN(CCN2CCOCC2)CN1Cc1ccccc1` the same measures were -20.1% (inactive) and above 9.62 µM.
For the compound `COc1cc(-c2nc(-c3ccc(NC(=O)c4ccc5c(c4)OCO5)cc3)no2)cc(OC)c1OC`, the Her2 inhibition in assay [1] was -12.5% (inactive). Besides, the EC50 in assay [2] is above 9.62 µM.
In the same order, the values of `O=C1c2cccc3cccc(c23)C(=O)N1c1nncs1` are -25.5% (inactive) and above 9.62 µM.
For `CC(=O)Nc1cccc(NC(=O)c2c(-c3ccccc3Cl)noc2C)c1` the same measures were -14.7% (inactive) and above 9.62 µM.
With `C=CCn1c(SCc2nc3ccccc3c(=O)[nH]2)nnc1-c1cc2cc(Cl)ccc2o1`, the Her2 inhibition in assay [1] is 5.79% (inactive). In assay [2], this compound came in with a half-maximal effective concentration (EC50) above 9.62 µM.
For `CCC(=O)OC1(C#CCOc2ccc(OC)cc2)CCN(C)CC1` the same measures were -12.2% (inactive) and above 9.62 µM.
In the same order, the values of `O=S(=O)(Nc1ccc2c(c1)CCC2)c1cccs1` are 10.2% (inactive) and above 9.62 µM.
For `CC(=N\O)/C(CN(C)C)=N/O` the same measures were -15.9% (inactive) and above 9.62 µM.
As for `COc1ccc(-c2nc(C(N)=O)c3[nH]c(=O)n(-c4cccc(Cl)c4)c3n2)cc1OC`, the Her2 inhibition in assay [1] is -17.3% (inactive). The same compound returned a concentration giving a half-maximal response (EC50) in assay [2] above 9.62 µM.
In the same order, the values of `C[C@H]1CCC[C@H](O)CCCCCc2cc(O)cc(O)c2C(=O)O1` are 3.17% (inactive) and above 9.62 µM.
For `Cc1ccc(S(=O)(=O)c2c(C)nn(C(C)(C)C)c2OC(=O)c2ccc(Br)o2)cc1` the same measures were 4.78% (inactive) and above 9.62 µM.
In the same order, the values of `CC(C)C(=O)N(Cc1cc2ccccc2[nH]c1=O)C(C)(C)C` are -2.53% (inactive) and above 9.62 µM.
On to `Cc1ccc(C(CC(=O)c2ccco2)SCCO)cc1` (configuration not stated), for which the Her2 inhibition in assay [1] was 10.4% (inactive). In assay [2], this compound yielded a half-maximal effective concentration (EC50) above 9.62 µM.
As to `Cc1nc2cc(S(=O)(=O)C(F)(F)F)ccc2s1`, the Her2 inhibition in assay [1] was -23.9% (inactive). The same compound came in with an EC50 in assay [2] above 9.62 µM.
In the same order, the values of `Cc1c(NC(=O)c2coc(=O)c(Br)c2)c(=O)n(-c2ccccc2)n1C` are 7.39% (inactive) and above 9.62 µM.
For `Nc1c(C(=O)Nc2ccccc2)sc2nc(-c3ccco3)ccc12` the same measures were 18.3% (inactive) and above 9.62 µM.
For `COc1ccccc1C(CC(=O)Nc1nccs1)c1ccco1` (configuration not stated) the same measures were 3.82% (inactive) and above 9.62 µM.

The EC50 is the concentration giving half of the maximal effect. A higher EC50 goes with lower potency in that assay.

The values are drawn from PubChem BioAssay AID742 (SRMLSC, 2007).
